Experimental data reported in patent US20230077723A1, “N-SUBSTITUTED-3,4-(FUSED 5-RING)-5-PHENYL-PYRROLIDINE-2-ONE COMPOUNDS AS INHIBITORS OF ISOQC AND/OR QC ENZYME” (Scenic Immunology B.V., priority 2019, published 2023).

Experiments:
[1] = test system: pyroglutamylated CD47 (pE-CD47) in KBM7 cells; test: Assay 6 - cell-based potency assay (pE-CD47 CC2C6 staining vs total CD47); set-up: species or system human; conditions: Homo sapiens, KBM-7, 72 h, CC2C6 signal, read-out: Cell Pot. Assay No. 6
Summary of the method: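 KBM7 cells received a 10-point 2-fold compound series for 72 h at 37 °C, then were stained with anti-CD47 clones 2D3 (total) and CC2C6 (pyroglutamylated) and analysed by flow cytometry on DAPI-negative cells. MFI was scaled between wild-type and CD47- or QPCTL-knockout cells; IC50 came from 3-parameter logistic fit of CC2C6 signal, top fixed at 1.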

[2] = molecular target: T1, Recombinant QC enzyme (residues 33-361 of uniprot ID Q16769) (Homo sapiens, UniProt Q16769); test: Assay 5 - QC potency, fluorescent enzymatic assay; assay type: biochemical; conditions: fluorescent read-out; read-out: QC Pot. Assay No. 5
T1 construct: bacterial expression of residues 33-361 of uniprot ID Q16769; His tag (cleaved yes); made in house; host or cells: bacterial expression (pET32a)
Excerpt: Recombinant QC enzyme was produced by bacterial expression of residues 33-361 of uniprot ID Q16769, fused to a His tag, codon optimized and cloned into the pET32a plasmid backbone. After scale-up, expression and lysis, protein was purified by Ni-NTA IMAC, dialysed in the presence of Factor Xa, further purified by Ni-NTA reverse IMAC and finally filtrated for size on a Superdex 200 16/60 column. Final protein was concentrated using a spin concentrator at 10 kDa molecular weight cutoff and formulated in 150 mM NaCl, 50 mM Tris-HCl, 50% Glycerol, pH 8.0.
(§1) Pyroglutamylation was measured by conversion of glutamine-4-amino-7-methylcoumarine (H-Gln-AMC, Bachem) to pyroglutamyl-AMC, which is subsequently a specific substrate for pyroglutamylaminopeptidase (pGAPase, Qiagen), releasing free AMC which can be fluorescently detected. For a typical inhibition assay, 7.5 μL aliquots of threefold dilutions of test compound in 50 mM Tris pH8 buffer were plated in 384-well plates. 15 μL 20 μM h-Gln-AMC (diluted from a 40 mM stock dissolved in 25 mM HEPES using 50 mM Tris-HCl pH 8.0) was added to each well. Finally, 7.5 μL, 3 ng/μL recombinant QC enzyme was added and the reaction mixture was incubated for 1 hour at 37° C. A 5 minute incubation at 98° C. was then performed to denature the QC enzyme and stop the reaction.
(§2) To detect the amount of pyroglutamyl-AMC formed, a 0.125 U/mL pGAPase enzyme diluted in 50 mM Tris-HCl pH 8.0 containing 10 mM dithiothreitol (DTT) solution was prepared. 25 μL of the pyroglutamylation reaction mixture was transferred into an empty plate and to that, 25 μL of the pGAPase enzyme solution was added. Plates were then incubated for 25 minutes at room temperature before fluorescence readings were taken on an Envision2 plate reader with excitation set at 380 nm and emission at 450 nm.
(§3) DMSO concentrations during the assay never exceeded 1% and activities were compared to controls containing only the same amount of DMSO and no test compound. Controls were taken along containing pyroglutamylated-AMC (Bachem, dissolved at 10 mM in DMSO) instead of H-Gln-AMC to control for pGAPase inhibition.
IC50 values are calculated using non-linear regression analysis with GraphPad Prism software.

human isoQC (S53-L382) = molecular target: T2, human isoQC (S53-L382) (Homo sapiens, UniProt Q9NXS2); test: Assay 3 - isoQC potency, fluorescent enzymatic assay; assay type: biochemical; conditions: fluorescent read-out; read-out: isoQc Pot. Assay No. 3
T2 construct: enzymatically active region of human isoQC (S53-L382; see, e.g., Huang et al., 2011); GST-Enterokinase site (N, cleaved yes); made in house; host or cells: E. coli
Protocol: For this assay specifically, isoQC production was performed slightly different than described in the general methods: The Golgi luminal, enzymatically active region of human isoQC (S53-L382; see, e.g., Huang et al., 2011) was obtained by expression in E. coli of an N-terminally GST Enterokinase and C-terminally 6×His tagged construct in the pET41(+) vector and subsequent purification using Ni-NTA IMAC. Enterokinase digestion ensued, followed by another Ni-NTA IMAC purification, Superdex75 based size exclusion and finally a spin concentration using a 10 kDa molecular weight cutoff. The final protein is formulated in 50 mM Tris-HCl, 150 mM NaCl, 50% Glycerol, pH 7.8.
as §1, with “isoQC” for “QC”
as §2
as §3, with “inhibition. IC50 values are calculated using non-linear regression analysis with GraphPad Prism software.” for “inhibition.”

T1 sequence (Q16769 33-361): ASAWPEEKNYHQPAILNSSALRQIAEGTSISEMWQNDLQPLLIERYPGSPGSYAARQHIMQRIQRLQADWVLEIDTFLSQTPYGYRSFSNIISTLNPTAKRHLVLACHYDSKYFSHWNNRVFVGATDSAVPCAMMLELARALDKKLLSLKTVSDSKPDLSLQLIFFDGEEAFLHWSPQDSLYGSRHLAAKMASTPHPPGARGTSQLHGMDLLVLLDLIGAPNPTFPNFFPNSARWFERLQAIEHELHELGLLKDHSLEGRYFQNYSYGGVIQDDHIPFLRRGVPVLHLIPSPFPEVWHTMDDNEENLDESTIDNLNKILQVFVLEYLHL
T2 sequence (Q9NXS2 53-382): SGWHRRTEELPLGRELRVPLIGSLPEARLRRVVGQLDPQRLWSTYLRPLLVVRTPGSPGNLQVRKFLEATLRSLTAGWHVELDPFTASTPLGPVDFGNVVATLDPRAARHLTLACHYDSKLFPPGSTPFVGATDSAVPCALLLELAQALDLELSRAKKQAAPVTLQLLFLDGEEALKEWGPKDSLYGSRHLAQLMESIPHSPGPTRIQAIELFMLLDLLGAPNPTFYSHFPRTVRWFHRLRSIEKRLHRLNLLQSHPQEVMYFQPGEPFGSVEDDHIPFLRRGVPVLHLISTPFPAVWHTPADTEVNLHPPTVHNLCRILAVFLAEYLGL

Row | IC50 [1] | IC50 [2] | IC50 (human isoQC (S53-L382)) | Structure (SMILES)
1 | < 1 µM | 0.025 to 0.1 µM | 0.025 to 0.1 µM | Cc1[nH]nc2c1C(c1ccc(N3CCC(F)(F)C3)c(F)c1F)N(c1ccc3[nH]cnc3c1)C2=O (centres unmarked) [FRPPO-161]
2 | < 1 µM | 0.1 to 5 µM | 0.1 to 5 µM | Cc1nn(C)c2c1C(c1ccc(-c3cnc(C(F)(F)F)s3)cc1F)N(c1ccc3[nH]cnc3c1)C2=O (centres unmarked) [FRPPO-164]
3 | < 1 µM | 0.1 to 5 µM | 0.025 to 0.1 µM | Cc1nn(C)c2c1C(c1ccc(-c3cnn(C(F)(F)F)c3)cc1F)N(c1ccc3[nH]cnc3c1)C2=O (centres unmarked) [FRPPO-165]
4 | 1 to 5 µM | 0.1 to 5 µM | 0.1 to 5 µM | Cc1nn(C)c2c1C(c1ccc(-n3cc(C(F)(F)F)cn3)cc1F)N(c1ccc3[nH]cnc3c1)C2=O (centres unmarked) [FRPPO-166]
5 | – | 0.1 to 5 µM | 0.1 to 5 µM | O=C1c2[nH]ncc2C(c2ccc(N3CCC(F)(F)C3)cc2F)N1c1ccc2[nH]cnc2c1 (centres unmarked) [FRPPO-171]
6 | – | 0.025 to 0.1 µM | 0.025 to 0.1 µM | COc1n[nH]c2c1C(c1ccc(N3CCC(F)(F)C3)cc1F)N(c1ccc3[nH]cnc3c1)C2=O (centres unmarked) [FRPPO-173]
7 | – | 0.1 to 5 µM | 0.025 to 0.1 µM | Cc1noc2c1C(c1ccc(-c3cnn(C(F)(F)F)c3)cc1F)N(c1ccc3[nH]cnc3c1)C2=O (centres unmarked) [FRPPO-176]
8 | – | 0.025 to 0.1 µM | < 0.025 µM | Cc1onc2c1C(c1ccc(-c3cnn(C(F)(F)F)c3)cc1F)N(c1ccc3[nH]cnc3c1)C2=O (centres unmarked) [FRPPO-177]
